Results taken from patent publication US20180290977A1, “KDM4 INHIBITORS” (Albert-Ludwigs-University Freiburg, priority 2017, published 2018).
pIC50: −log10 of the molar value. Where two headings read alike, the source gives them in different places.

Tests used:
KDM4A = target: T1, KDM4A (Homo sapiens, UniProt O75164); assay: KDM demethylase inhibition (IC50); assay type: biochemical
T1 sequence (O75164 1-1064): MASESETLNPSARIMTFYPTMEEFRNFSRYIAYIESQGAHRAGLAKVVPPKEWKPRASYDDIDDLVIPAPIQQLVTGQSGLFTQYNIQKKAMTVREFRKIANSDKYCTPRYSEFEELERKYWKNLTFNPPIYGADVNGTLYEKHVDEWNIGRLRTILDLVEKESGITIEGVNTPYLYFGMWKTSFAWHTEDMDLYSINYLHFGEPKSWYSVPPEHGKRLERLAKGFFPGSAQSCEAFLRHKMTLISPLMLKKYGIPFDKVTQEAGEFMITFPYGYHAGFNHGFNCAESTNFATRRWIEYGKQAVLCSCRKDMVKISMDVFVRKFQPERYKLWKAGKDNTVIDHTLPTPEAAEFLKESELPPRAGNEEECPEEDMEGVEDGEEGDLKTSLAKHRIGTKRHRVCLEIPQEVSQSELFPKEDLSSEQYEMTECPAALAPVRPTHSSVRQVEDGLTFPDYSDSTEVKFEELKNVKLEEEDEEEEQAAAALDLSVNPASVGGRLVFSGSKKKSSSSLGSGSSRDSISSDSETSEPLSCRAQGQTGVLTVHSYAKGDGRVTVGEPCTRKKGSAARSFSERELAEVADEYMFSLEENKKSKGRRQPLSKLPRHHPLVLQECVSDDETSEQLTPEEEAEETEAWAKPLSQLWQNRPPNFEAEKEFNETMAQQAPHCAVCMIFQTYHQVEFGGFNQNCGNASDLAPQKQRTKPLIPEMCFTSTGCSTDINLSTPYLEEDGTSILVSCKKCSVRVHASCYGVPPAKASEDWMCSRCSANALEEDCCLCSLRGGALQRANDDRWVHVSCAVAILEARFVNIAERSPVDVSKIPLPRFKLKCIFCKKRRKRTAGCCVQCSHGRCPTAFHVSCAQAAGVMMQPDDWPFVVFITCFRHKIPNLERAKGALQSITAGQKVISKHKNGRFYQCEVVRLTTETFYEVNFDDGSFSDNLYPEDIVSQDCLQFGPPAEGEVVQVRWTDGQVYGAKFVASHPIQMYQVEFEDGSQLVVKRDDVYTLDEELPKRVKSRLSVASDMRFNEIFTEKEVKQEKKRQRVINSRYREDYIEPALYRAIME

KDM2B = target: T2, KDM2B (Homo sapiens, UniProt Q8NHM5); assay: KDM demethylase inhibition (IC50); assay type: biochemical
T2 sequence (Q8NHM5 1-1336): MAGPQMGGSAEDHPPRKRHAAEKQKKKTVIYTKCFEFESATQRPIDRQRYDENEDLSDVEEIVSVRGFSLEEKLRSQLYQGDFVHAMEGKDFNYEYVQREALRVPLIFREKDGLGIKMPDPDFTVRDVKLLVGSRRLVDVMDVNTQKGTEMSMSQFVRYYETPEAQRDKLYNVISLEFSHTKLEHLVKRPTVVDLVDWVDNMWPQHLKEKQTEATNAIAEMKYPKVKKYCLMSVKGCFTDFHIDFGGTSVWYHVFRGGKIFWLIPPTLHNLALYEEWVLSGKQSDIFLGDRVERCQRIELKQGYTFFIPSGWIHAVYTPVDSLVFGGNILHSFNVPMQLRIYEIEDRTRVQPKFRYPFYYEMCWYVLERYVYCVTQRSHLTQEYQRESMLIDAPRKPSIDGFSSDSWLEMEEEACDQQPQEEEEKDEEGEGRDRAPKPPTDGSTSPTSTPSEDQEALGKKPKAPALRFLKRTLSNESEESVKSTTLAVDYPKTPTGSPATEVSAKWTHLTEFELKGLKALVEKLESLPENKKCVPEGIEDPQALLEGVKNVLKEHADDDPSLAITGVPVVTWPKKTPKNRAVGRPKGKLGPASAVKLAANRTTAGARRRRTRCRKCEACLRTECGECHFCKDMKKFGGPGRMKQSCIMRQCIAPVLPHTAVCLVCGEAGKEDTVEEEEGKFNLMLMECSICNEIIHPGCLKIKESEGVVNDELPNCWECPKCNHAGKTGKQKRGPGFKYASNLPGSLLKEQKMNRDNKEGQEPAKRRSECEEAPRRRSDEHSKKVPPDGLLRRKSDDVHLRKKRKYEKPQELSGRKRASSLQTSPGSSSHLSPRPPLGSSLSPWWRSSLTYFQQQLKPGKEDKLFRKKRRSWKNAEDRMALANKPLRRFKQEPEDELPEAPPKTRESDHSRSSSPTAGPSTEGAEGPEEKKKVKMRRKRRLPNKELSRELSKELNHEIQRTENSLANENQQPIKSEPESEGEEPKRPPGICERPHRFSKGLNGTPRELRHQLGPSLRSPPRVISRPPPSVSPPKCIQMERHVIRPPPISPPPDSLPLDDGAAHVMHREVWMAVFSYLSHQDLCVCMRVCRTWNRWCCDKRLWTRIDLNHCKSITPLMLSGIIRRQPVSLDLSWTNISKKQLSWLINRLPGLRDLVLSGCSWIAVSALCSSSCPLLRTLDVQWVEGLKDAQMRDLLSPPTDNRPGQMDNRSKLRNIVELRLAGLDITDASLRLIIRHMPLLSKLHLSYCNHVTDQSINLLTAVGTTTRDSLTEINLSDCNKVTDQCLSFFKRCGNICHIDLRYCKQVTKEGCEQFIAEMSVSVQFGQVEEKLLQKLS

KDM5B = KDM5B (Homo sapiens, UniProt Q9UGL1); assay: KDM demethylase inhibition (IC50); assay type: biochemical
Chain of KDM5B (Q9UGL1 whole entry): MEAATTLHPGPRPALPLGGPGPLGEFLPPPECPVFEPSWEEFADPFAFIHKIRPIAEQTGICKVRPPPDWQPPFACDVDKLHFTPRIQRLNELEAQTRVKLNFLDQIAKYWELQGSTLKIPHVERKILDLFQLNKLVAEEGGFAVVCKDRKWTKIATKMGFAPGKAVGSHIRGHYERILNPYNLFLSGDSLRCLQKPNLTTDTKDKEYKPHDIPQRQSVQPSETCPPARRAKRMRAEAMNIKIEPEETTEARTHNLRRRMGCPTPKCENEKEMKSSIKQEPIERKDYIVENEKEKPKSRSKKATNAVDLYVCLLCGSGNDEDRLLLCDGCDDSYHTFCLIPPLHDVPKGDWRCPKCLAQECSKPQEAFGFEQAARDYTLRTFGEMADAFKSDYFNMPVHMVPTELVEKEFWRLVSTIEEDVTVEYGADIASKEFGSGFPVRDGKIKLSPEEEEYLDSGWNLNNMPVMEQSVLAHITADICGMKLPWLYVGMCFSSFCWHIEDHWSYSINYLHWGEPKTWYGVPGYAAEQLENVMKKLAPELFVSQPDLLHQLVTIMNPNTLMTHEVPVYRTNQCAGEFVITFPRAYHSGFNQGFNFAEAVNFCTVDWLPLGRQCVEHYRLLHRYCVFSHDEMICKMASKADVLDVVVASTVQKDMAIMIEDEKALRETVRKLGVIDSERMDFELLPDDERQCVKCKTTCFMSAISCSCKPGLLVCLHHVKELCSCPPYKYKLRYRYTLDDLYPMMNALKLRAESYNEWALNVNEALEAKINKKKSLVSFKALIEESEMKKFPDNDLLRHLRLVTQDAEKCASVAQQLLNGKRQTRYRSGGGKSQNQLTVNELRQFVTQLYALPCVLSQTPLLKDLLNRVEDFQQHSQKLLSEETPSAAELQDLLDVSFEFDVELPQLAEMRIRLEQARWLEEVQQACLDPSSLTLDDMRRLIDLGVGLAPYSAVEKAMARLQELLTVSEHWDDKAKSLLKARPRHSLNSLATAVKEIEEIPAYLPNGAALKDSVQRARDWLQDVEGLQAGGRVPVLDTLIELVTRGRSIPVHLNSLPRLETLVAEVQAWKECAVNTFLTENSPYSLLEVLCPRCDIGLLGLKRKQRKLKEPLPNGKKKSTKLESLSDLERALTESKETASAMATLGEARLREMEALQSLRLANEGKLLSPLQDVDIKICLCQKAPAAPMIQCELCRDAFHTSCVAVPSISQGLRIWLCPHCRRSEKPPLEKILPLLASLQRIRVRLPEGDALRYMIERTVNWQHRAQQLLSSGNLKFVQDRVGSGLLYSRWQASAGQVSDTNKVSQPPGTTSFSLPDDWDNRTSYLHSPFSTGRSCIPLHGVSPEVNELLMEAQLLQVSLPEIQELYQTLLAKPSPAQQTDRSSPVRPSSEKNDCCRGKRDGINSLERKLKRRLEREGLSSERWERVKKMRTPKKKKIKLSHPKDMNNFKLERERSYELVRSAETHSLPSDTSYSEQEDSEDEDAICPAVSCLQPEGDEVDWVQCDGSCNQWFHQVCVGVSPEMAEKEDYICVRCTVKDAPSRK

KDM6A = KDM6A (Homo sapiens, UniProt O15550); assay: KDM demethylase inhibition (IC50); assay type: biochemical
Chain of KDM6A (O15550 whole entry): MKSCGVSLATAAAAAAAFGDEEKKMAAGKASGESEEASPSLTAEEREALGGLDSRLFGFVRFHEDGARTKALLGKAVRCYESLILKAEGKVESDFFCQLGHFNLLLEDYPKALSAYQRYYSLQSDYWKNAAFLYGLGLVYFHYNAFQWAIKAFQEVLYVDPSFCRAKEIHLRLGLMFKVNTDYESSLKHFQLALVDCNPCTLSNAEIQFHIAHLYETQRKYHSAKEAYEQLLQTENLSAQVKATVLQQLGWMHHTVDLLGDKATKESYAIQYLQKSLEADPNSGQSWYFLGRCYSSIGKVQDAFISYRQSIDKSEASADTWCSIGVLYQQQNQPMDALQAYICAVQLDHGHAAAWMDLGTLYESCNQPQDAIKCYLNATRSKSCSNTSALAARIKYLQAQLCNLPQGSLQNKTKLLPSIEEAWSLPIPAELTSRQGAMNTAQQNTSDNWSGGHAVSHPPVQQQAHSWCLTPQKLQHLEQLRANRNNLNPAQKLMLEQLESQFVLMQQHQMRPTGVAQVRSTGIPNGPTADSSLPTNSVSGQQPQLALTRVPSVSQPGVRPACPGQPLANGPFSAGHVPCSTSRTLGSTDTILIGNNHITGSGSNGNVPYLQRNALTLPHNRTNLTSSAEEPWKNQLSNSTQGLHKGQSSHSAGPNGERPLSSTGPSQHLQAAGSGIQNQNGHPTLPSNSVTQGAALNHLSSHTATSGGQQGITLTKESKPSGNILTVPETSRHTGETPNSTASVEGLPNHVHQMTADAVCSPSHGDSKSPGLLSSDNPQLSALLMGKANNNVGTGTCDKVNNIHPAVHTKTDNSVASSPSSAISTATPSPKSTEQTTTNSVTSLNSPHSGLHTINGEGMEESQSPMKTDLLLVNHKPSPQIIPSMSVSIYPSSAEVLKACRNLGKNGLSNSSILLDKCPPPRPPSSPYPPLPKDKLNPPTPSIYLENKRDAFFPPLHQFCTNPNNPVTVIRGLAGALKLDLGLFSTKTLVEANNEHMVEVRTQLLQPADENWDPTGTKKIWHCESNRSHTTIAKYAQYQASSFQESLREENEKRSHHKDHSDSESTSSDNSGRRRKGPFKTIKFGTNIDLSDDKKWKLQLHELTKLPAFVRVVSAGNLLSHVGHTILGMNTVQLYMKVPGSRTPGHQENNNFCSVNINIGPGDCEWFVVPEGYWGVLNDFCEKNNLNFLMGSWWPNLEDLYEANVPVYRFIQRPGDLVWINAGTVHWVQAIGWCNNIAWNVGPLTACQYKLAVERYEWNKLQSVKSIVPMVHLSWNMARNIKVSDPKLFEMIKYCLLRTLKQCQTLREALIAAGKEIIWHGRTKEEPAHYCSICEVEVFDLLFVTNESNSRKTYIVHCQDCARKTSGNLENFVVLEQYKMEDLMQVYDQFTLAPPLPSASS

[1] = Pharmacokinetic study iv/po; assay type: in vivo; settings: Dose iv/po 5/10 mg/kg

## CN(c1ccccc1)c1ccc2c(c1)CCC[C@H]2CNc1cnccc1C(=O)O [Compound I, 3-({[(1R)-6-[methyl(phenyl)amino]-1,2,3,4-tetrahydronaphthalen-1-yl]methyl}amino)pyridine-4-carboxylic Acid]
KDM4A; read-out: Compound I IC50
  pIC50: 6.98
KDM4A; read-out: IC50, demethylase activity
  pIC50: > 6.98
KDM2B
  pIC50: < 5.00
KDM5B
  effect on the demethylase activity of KDM5B: weak effect
KDM5B; read-out: Compound I IC50, KDM5B
  pIC50: 6.12
KDM6A
  pIC50: < 5.00
[1]
  po 1/2: 2.57 h
[1]; plasma, 5 mg/kg, read-out: Vz (mL/kg), apparent volume of distribution during terminal phase
  Vd: 666 mL/kg
[1]; plasma
  AUC: 10400 ng·h/mL
